# Data from patent US6642222B2, “Pyrano, piperidino, and thiopyrano compounds and methods of use” (Abbott Laboratories, priority 1998, dated 2003).
# What was measured:
# Landrace Pig Bladder = test: Functional potassium channel opening activity in isolated bladder strips (field-stimulated twitch); details: for Index: ED50 for P1075 divided by ED50 for the test agonist, averaged over tissues; for Efficacy (% P1075) / Emax: maximal efficacy relative to P1075, field stimulated bladder strips; for pD2 / EC50: negative logarithm of ED50; for Emax / EC50: Sus scrofa; for EC50: read-out: pD2 (converted)
# Protocol: Compounds were evaluated for functional potassium channel opening activity using tissue strips obtained from Landrace pig bladders. Landrace pig bladders were obtained from female Landrace pigs of 9-30 kg. Landrace pigs were euthanized with an intraperitoneal injection of pentobarbital solution, Somlethal®, J. A. Webster Inc. Sterling Mass. The entire bladder was removed and immediately placed into Krebs Ringer bicarbonate solution (composition, mM: NaCl, 120; […] Dextrose, 4.7; […] Propranolol (0.004 mM) was included in all of the assays to block β-adrenoceptors. The trigonal and dome portions were […], Strips 3-5 […] (mm) wide and 20 mm long were prepared from the remaining tissue cut in a circular fashion. The mucosal layer was removed. One end was fixed to a stationary glass rod and the other to a Grass FT03 transducer at a basal preload of 1.0 g. Two parallel platinum electrodes were included in the stationary glass trod to provide field stimulation of 0.05 Hz, 0.5 milli-seconds at 20 volts. […] Tissues were allowed to equilibrate for at least 60 minutes and primed with 80 mM KCl. A control concentration response curve (cumulative) was generated for each tissue using the potassium channel opener […] as the control agonist. […] After a 60 minute rinsing period, a concentration response curve (cumulative) was generated for the test agonist in the same fashion as that used for the control agonist […]. The maximal efficacy of each compounds (expressed as % relative to […]) is reported. The amount of agent necessary to cause 50% of the agent's maximal response (ED50) was calculated using “ALLFIT” (DeLean et al., Am. J. […] Agonist potencies were also expressed as an index relative to […]. The index was calculated by dividing the ED50 for […] by the ED50 for the test agonist in a given tissue. Each tissue was used for only one test agonist, and the indices obtained from each tissue were averaged to provide an average index of potency.
# [1] = test system: Guinea-Pig Bladder (GPB) Cells; test: Membrane Hyperpolarization (MHP) assay, DiBAC(4)3 / FLIPR; details: for Maximal Response (% P1075): maximal steady-state hyperpolarization, normalized to 10 μM P1075 (100%); for EC50: membrane hyperpolarization, GPB cells; for Emax: read-out: Maximal Response (% P1075), maximal steady-state hyperpolarization, normalized to 10 μM P1075 (100%)
# Protocol: Compounds were evaluated for potassium channel opening activity using primary cultured guinea-pig urinary bladder (GPB) cells.
# For the preparation of urinary bladder smooth muscle cells, urinary bladders were removed from male guinea-pigs (Hartley, Charles River, Wilmington, Mass.) weighing 300-400 grams (g) and placed in ice-cold Ca^2+-free Krebs solution (Composition, millimolar (mM): KCl, 2.7; KH2PO4, 1.5; NaCl, 75; Na2HPO4, 9.6; Na2HPO4.7H2O, 8; MgSO4, 2; glucose, 5; HEPES, 10; pH 7.4). Cells were isolated by enzymatic dissociation (Klockner, U. and Isenberg, G., Pflugers Arch. (1985), 405, 329-339). The bladder was cut into small sections and incubated in 5 milliliters (mL) of the Kreb's solution containing 1 milligram per milliliter (mg/mL) of collagenase (Sigma, St. Louis, Mo.) and 0.2 mg/mL of pronase (Calbiochem, La Jolla, Calif.) with continuous stirring in a cell incubator for 30 minutes. The mixture was then centrifuged at 1300× g for 5 minutes, and the pellet resuspended in Dulbecco's phosphate buffered saline (PBS) (GIBCO, Gaithersburg, Md.) and recentrifuged to remove residual enzyme. The cell pellet was resuspended in 5 mL growth media (composition: Dulbecco's modified Eagle's medium supplemented with 10% fetal bovine serum, 100 units/mL penicillin, 100 units/mL streptomycin and 0.25 mg/mL amphotericin B) and further dissociated by pipetting the suspension through a flame-polished Pasteur pipette and passing it through a polypropylene mesh membrane (Spectrum, Houston, Tex.). The cell density was adjusted to 100,000 cells/mL by resuspension in growth media. Cells were plated in clear-bottomed black 96-well plates (Packard) for membrane potential studies at a density of 20,000 cells/well and maintained in a cell incubator with 90% air: 10% CO2 until confluent. Cells were confirmed to be of smooth muscle type by cytoskeletal staining using a monoclonal mouse anti human-α-smooth muscle actin (Biomeda, Foster City, Calif.).
# Functional activity at potassium channels was measured by evaluating changes in membrane potential using the bis-oxonol dye DiBAC(4)3 (Molecular Probes) in a 96-well cell-based kinetic assay system using a Fluorescent Imaging Plate Reader (FLIPR) (K. S. Schroeder et al., J. Biomed. Screen., v. 1 pp. 75-81 (1996)). DiBAC(4)3 is an anionic potentiometric probe which partitions between cells and extracellular solution in a membrane potential-dependent manner. With increasing membrane potential (for example, K^+ depolarization), the probe further partitions into the cell; this is measured as an increase in fluorescence due to dye interaction with intracellular lipids and proteins. Conversely, decreasing membrane potential (hyperpolarization by potassium channel openers) evokes a decrease in fluorescence.
# Confluent guinea-pig urinary bladder cells cultured in black clear-bottomed 96-well plates were rinsed twice with 200 mL assay buffer (composition, mM: HEPES, 20; NaCl, 120; KCl, 2; CaCl2, 2; MgCl2, 1; glucose, 5; pH 7.4 at 25° C.) containing 5 μM DiBAC(4)3 and incubated with 180 mL of the buffer in a cell incubator for 30 minutes at 37° C. to ensure dye distribution across the membrane. After recording the baseline fluorescence for 5 minutes, the reference or test compounds, prepared at 10 times the concentration in the assay buffer, were added directly to the wells. Changes in fluorescence were monitored for an additional 25 minutes.
# Routinely, five concentrations of P1075 or test compounds (log or half-log dilutions) were evaluated and the maximal steady-state hyperpolarization values (expressed as % relative to P1075) plotted as a function of concentration. The EC50 (concentration that elicites 50% of the maximal response for the test sample) values were calculated by non-linear regression analysis using a four parameter sigmoidal equation. The maximal micromolar EC50 response of each compound (expressed as % relative to P1075) is reported.
SMILES,Index (Landrace Pig Bladder),Efficacy (% P1075) (Landrace Pig Bladder),pD2 (Landrace Pig Bladder),Maximal Response (% P1075) [1],EC50 [1],also measured
"C[C@H]1OCC2=C(C1=O)[C@H](c1ccc(F)c(Br)c1)C1=C(COC1=O)N2 (relative stereo) [Example 85, (cis)-9-(3-bromo-4-fluorophenyl)-7-methyl-5,9-dihydro-3H-furo[3,4-b]pyrano[4,3-e]pyridine-1,8(4H,7H)-dione]",,,,,,melting point: 234 to 239 °C
"C[C@@H]1OCC(=O)C2=C1NC1=C(C(=O)OC1)[C@H]2c1ccc(F)c(Br)c1 (relative stereo) [Example 89, (cis)-9-(3-bromo-4-fluorophenyl)-5-methyl-5,9-dihydro-3H-furo[3,4-b]pyrano[4,3-e]pyridine-1,8(4H,7H)-dione]",,,,,,melting point: 260 to 263 °C
"C[C@@H]1OC(=O)C2=C1NC1=C(C(=O)COC1)[C@H]2c1ccc(F)c(Br)c1 (relative stereo) [Example 91, (cis)-9-(3-bromo-4-fluorophenyl)-3-methyl-5,9-dihydro-3H-furo[3,4-b]pyrano[4,3-e]pyridine-1,8(4H,7H)-dione]",,,,,,melting point: 213 to 216 °C
"C[C@@H]1OC(=O)C2=C1NC1=C(C(=O)COC1)[C@H]2c1ccc(F)c(Br)c1 (relative stereo) [Example 100, (cis)-9-(3-bromo-4-fluorophenyl)-3-methyl-5,9-dihydro-3H-furo[3,4-b]pyrano[4,3-e]pyridine-1,8(4H,7H)-dione]",,,,,,melting point: 230 to 233 °C
"CCC1OC(=O)C2=C1NC1=C(C(=O)COC1)C2c1ccc(F)c(Br)c1 (single isomer, unassigned) [Example 95, 9-(3-bromo-4-fluorophenyl)-3-ethyl-5,9-dihydro-3H-furo[3,4-b]pyrano[4,3-e]pyridine-1,8(4H,7H)-dione]",,,,,,melting point: 161 to 162 °C
"O=C1COCC2=C1C(c1ccc(Cl)c(Cl)c1)C1=C(COCC1=O)N2 [Example 33, 5-(3,4-dichlorophenyl)-5,10-dihydro-1H,3H-dipyrano[3,4-b:4,3-e]pyridine-4,6(7H,9H)-dione]",0.27,93 % P1075,5.9,92 % P1075,0.0034 µM,
"O=C1COCC2=C1C(c1ccc3nonc3c1)C1=C(COCC1=O)N2 [Example 34, 5-(2,1,3-benzoxadiazol-5-yl)-5,10-dihydro-1H,3H-dipyrano[3,4-b:4,3-e]pyridine-4,6(7H,9H)-dione]",0.96,93 % P1075,7.0,88 % P1075,0.091 µM,
"O=C1COCC2=C1C(c1ccc([N+](=O)[O-])s1)C1=C(COCC1=O)N2 [Example 35, 5-(5-nitro-2-thienyl)-5,10-dihydro-1H,3H-dipyrano[3,4-b:4,3-e]pyridine-4,6(7H,9H)-dione]",1.8,100 % P1075,7.4,98 % P1075,0.025 µM,
"O=C1COCC2=C1C(c1csc([N+](=O)[O-])c1)C1=C(COCC1=O)N2 [Example 36, 5-(5-nitro-3-thienyl)-5,10-dihydro-1H,3H-dipyrano[3,4-b:4,3-e]pyridine-4,6(7H,9H)-dione]",0.24,100 % P1075,6.5,98 % P1075,0.082 µM,
"O=C1COCC2=C1C(c1ccc(F)c(I)c1)C1=C(CCS1(=O)=O)N2 (stereo not drawn) [Example 37, 9-(4-fluoro-3-iodophenyl)-2,3,5,9-tetrahydro-4H-pyrano[3,4-b]thieno[2,3-e]pyridin-8(7H)-one 1,1-dioxide]",2.1,,,,,Emax (Landrace Pig Bladder): 95%; EC50 (Landrace Pig Bladder): 0.0501 µM; EC50 ([1]; Cavia porcellus): 0.00064 µM; Emax ([1]; Cavia porcellus): 105%
"Cl.O=C1CCC2=C1C(c1ccc(F)c(Cl)c1)C1=C(CNCC1=O)N2 (stereo not drawn) [Example 38, 5-(3-chloro-4-fluorophenyl)-2,3,5,7,8,9-hexahydro-1H-cyclopenta[b][1,7]naphthyridine-4,6-dione Hydrochloride]",0.024,,,,,Emax (Landrace Pig Bladder): 80%; EC50 (Landrace Pig Bladder): 5.01 µM; EC50 ([1]; Cavia porcellus): 0.39 µM; Emax ([1]; Cavia porcellus): 82%
"Cl.O=C1CNCC2=C1C(c1ccc(F)c(Br)c1)C1=C(COC1=O)N2 (stereo not drawn) [Example 39, 9-(3-bromo-4-fluorophenyl)-5,6,7,9-tetrahydrofuro[3,4-b][1,7]naphthyridine-1,8(3H,4H)-dione Hydrochloride]",,,,,,Index (Landrace Pig Bladder; Hydrochloride): 0.036; Emax (Landrace Pig Bladder): 96%; pD2 (Landrace Pig Bladder; Hydrochloride): 5.6; Maximal Response (% P1075) ([1]; Hydrochloride): 80 % P1075; EC50 ([1]; Hydrochloride): 0.68 µM
"Cl.O=C1CNCC2=C1C(c1ccc(F)c(Br)c1)C1=C(COC1=O)N2 (stereo not drawn) [Example 40, 9-(3-bromo-4-fluorophenyl)-5,6,7,9-tetrahydrofuro [3,4-b][1,7]naphthyridine-1,8(3H,4H)-dione hydrochloride]",,,,,,Index (Landrace Pig Bladder; Hydrochloride): 0.13; Efficacy (% P1075) (Landrace Pig Bladder; Hydrochloride): 91 % P1075; pD2 (Landrace Pig Bladder; Hydrochloride): 6.0; Maximal Response (% P1075) ([1]; Hydrochloride): 111 % P1075; EC50 ([1]; Hydrochloride): 0.32 µM
"O=C1CCCC2=C1C(c1ccc(F)c(Br)c1)C1=C(CSCC1=O)N2 (stereo not drawn) [Example 50, 5-(3-bromo-4-fluorophenyl)-5,8,9,10-tetrahydro-1H-thiopyrano[3,4-b]quinoline-4,6(3H,7H)-dione]",0.28,,,,,Emax (Landrace Pig Bladder): 96%; EC50 (Landrace Pig Bladder): 0.631 µM; EC50 ([1]; Cavia porcellus): 0.084 µM; Emax ([1]; Cavia porcellus): 108%
"O=C1COCC2=C1C(c1ccc(F)c(Br)c1)C1=C(CCNC1=O)N2 (stereo not drawn) [Example 52, 10-(3-bromo-4-fluorophenyl)-3,4,6,10-tetrahydro-2H-pyrano[3,4-b][1,6]naphthyridine-1,9(5H,8H)-dione]",0.069,,,,,Emax (Landrace Pig Bladder): 99%; EC50 (Landrace Pig Bladder): 5.01 µM; EC50 ([1]; Cavia porcellus): 0.38 µM; Emax ([1]; Cavia porcellus): 105%
"Cc1ccc(C2C3=C(COCC3=O)NC3=C2C(=O)COC3)cc1Br [Example 53, 5-(3-bromo-4-methylphenyl)-5,10-dihydro-1H,3H-dipyrano[3,4-b:4,3-e]pyridine-4,6(7H,9H)-dione]",0.44,100 % P1075,7.0,98 % P1075,0.019 µM,
"Cc1ccc(C2C3=C(COCC3=O)NC3=C2C(=O)COC3)cc1I [Example 54, 5-(3-iodo-4-methylphenyl)-5,10-dihydro-1H,3H-dipyrano[3,4-b:4,3-e]pyridine-4,6(7H,9H)-dione]",0.48,100 % P1075,6.9,101 % P1075,0.0095 µM,
"O=C1COCC2=C1C(c1ccc(Br)c(Br)c1)C1=C(COCC1=O)N2 [Example 55, 5-(3,4-dibromonhenyl)-5,10-dihydro-1H,3H-dipyrano [3,4-b:4,3-e]pyridine-4,6(7H,9H)-dione]",0.35,80 % P1075,6.2,108 % P1075,0.0039 µM,
"O=C1COCC2=C1C(c1ccc(F)c(-c3ccco3)c1)C1=C(COCC1=O)N2 [Example 57, 5-[4-fluoro-3-(2-furyl)phenyl]-5,10-dihydro-1H,3H-dipyrano[3,4-b:4,3-e]pyridine-4,6(7H,9H)-dione]",0.090,45 % P1075,5.6,69 % P1075,4 µM,
"O=C1COCC2=C1C(c1cc(Br)c(F)cc1O)C1=C(COCC1=O)N2 [Example 58, 5-(5-bromo-4-fluoro-2-hydroxyphenyl)-5,10-dihydro-1H,3H-dipyrano[3,4-b:4,3-e]pyridine-4,6(7H,9H)-dione]",0.19,84 % P1075,6.2,94 % P1075,0.046 µM,
"Cc1ccc(C2C3=C(COCC3=O)NC3=C2C(=O)COC3)cc1[N+](=O)[O-] [Example 59, 5-(4-methyl-3-nitrophenyl)-5,10-dihydro-1H,3H-dipyrano[3,4-b:4,3-e]pyridine-4,6(7H,9H)-dione]",0.17,73 % P1075,5.9,94 % P1075,0.099 µM,
"C=C(C)c1cc(C2C3=C(COCC3=O)NC3=C2C(=O)COC3)ccc1F [Example 64, 5-(4-fluoro-3-isopropenylphenyl)-5,10-dihydro-1H,3H-dipyrano[3,4-b:4,3-e]pyridine-4,6(7H,9H)-dione]",0.031,95 % P1075,5.5,84 % P1075,0.25 µM,
